How the values were obtained:
[1] = target: Calcium/calmodulin-dependent protein kinase type 1 (Homo sapiens) (UniProt Q14012); conditions: at 10 µM
[2] = target: Ephrin type-A receptor 2 (Homo sapiens) (UniProt P29317); assay: Selectivity interaction (Millipore kinase profiler) EUB0000124b EPHA2; conditions: at 10 µM
[3] = target: T1, Serine/threonine-protein kinase Sgk2 (Homo sapiens) (UniProt Q9HBY8); assay: Selectivity interaction (Kinase screening (Nanosyn)) EUB0000604a SGK2
T1 sequence (whole entry): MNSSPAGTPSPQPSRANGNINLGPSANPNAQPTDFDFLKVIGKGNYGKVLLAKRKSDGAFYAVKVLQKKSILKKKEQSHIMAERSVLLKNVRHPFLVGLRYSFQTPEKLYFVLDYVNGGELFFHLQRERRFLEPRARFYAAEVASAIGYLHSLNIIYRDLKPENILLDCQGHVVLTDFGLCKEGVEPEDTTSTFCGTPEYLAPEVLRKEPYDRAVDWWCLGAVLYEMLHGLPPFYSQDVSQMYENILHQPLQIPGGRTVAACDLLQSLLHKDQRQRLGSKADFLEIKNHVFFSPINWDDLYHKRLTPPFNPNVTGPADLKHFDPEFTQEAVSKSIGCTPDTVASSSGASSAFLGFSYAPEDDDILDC

[4] = target: T2, Aurora kinase C (Homo sapiens) (UniProt Q9UQB9); assay: Selectivity interaction (Ambit KINOMEscan and KiNATiv profiling in Jurkat cells) EUB0000090b AURKC; format: cell-based; conditions: at 1 µM
T2 sequence (whole entry): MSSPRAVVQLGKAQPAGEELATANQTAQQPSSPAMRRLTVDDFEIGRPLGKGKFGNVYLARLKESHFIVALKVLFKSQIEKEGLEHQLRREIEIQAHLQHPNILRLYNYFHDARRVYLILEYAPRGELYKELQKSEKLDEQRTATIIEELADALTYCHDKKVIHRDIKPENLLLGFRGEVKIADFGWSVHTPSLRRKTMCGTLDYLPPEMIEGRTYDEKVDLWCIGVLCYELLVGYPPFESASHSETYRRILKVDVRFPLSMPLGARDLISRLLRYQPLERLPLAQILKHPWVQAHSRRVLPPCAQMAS

[5] = target: Phosphatidylinositol 4,5-bisphosphate 3-kinase catalytic subunit gamma isoform (Homo sapiens) (UniProt P48736); assay: Selectivity interaction (ActivX KiNativ screen (kinase selectivity in THP-1 cell lysates)) EUB0000639a PIK3CG; format: subcellular; conditions: lysate
Chain of Phosphatidylinositol 4,5-bisphosphate 3-kinase catalytic subunit gamma isoform (Homo sapiens) (P48736 whole entry, looked up, canonical isoform): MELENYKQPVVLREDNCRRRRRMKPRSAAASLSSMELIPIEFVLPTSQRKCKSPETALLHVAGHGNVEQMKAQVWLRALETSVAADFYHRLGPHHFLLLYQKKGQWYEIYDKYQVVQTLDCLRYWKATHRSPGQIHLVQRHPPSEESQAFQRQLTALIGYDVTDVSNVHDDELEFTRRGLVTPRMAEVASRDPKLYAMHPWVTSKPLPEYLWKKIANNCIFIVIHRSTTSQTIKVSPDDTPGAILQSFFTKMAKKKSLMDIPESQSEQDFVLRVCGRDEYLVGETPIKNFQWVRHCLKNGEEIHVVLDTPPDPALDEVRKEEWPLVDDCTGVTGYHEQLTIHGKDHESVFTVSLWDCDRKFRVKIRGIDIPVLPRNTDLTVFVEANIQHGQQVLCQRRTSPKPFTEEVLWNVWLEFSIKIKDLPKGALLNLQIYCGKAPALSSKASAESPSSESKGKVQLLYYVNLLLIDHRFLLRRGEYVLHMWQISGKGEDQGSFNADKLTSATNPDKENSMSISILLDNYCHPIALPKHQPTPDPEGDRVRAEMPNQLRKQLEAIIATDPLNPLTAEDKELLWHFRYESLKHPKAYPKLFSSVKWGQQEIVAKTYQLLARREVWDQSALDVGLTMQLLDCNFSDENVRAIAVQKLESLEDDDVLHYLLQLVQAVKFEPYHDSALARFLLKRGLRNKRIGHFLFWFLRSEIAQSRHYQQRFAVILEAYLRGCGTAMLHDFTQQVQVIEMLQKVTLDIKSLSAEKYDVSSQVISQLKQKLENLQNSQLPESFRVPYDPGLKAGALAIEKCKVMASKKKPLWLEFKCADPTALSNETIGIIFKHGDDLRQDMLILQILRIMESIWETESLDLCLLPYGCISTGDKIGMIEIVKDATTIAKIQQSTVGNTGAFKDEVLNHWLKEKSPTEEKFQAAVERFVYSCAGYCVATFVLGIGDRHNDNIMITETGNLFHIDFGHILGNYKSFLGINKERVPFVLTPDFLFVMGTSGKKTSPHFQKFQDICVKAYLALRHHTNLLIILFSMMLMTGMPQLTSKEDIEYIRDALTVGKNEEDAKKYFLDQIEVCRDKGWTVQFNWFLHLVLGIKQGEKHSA

[6] = target: Calcium/calmodulin-dependent protein kinase type II subunit delta (Homo sapiens) (UniProt Q13557); assay: Selectivity interaction (ActivX KiNativ screen (kinase selectivity in THP-1 cell lysates)) EUB0000639a CAMK2D; format: subcellular; conditions: lysate, at 0.04 µM
Chain of Calcium/calmodulin-dependent protein kinase type II subunit delta (Homo sapiens) (Q13557 whole entry): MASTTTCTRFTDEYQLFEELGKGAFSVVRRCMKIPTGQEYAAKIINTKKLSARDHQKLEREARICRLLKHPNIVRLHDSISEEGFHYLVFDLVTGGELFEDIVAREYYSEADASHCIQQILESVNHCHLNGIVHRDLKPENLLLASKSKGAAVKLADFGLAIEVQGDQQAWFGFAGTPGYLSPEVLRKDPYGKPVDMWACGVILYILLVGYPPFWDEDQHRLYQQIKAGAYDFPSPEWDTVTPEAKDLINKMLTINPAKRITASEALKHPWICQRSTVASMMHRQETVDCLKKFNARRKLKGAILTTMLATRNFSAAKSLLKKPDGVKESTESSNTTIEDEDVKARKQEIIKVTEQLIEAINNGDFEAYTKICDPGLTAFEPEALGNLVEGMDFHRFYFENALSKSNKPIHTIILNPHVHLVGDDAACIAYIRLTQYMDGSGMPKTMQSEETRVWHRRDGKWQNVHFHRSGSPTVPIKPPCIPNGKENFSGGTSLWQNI

[7] = target: Microtubule-associated serine/threonine-protein kinase 1 (Homo sapiens) (UniProt Q9Y2H9); assay: Selectivity interaction (KinomeScan (DiscoverX)) EUB0000595a MAST1; conditions: at 10 µM
[8] = target: MAP/microtubule affinity-regulating kinase 3 (Homo sapiens) (UniProt P27448); assay: Selectivity interaction (ProQinase) EUB0000171b MARK3
Chain of MAP/microtubule affinity-regulating kinase 3 (Homo sapiens) (P27448 whole entry, looked up): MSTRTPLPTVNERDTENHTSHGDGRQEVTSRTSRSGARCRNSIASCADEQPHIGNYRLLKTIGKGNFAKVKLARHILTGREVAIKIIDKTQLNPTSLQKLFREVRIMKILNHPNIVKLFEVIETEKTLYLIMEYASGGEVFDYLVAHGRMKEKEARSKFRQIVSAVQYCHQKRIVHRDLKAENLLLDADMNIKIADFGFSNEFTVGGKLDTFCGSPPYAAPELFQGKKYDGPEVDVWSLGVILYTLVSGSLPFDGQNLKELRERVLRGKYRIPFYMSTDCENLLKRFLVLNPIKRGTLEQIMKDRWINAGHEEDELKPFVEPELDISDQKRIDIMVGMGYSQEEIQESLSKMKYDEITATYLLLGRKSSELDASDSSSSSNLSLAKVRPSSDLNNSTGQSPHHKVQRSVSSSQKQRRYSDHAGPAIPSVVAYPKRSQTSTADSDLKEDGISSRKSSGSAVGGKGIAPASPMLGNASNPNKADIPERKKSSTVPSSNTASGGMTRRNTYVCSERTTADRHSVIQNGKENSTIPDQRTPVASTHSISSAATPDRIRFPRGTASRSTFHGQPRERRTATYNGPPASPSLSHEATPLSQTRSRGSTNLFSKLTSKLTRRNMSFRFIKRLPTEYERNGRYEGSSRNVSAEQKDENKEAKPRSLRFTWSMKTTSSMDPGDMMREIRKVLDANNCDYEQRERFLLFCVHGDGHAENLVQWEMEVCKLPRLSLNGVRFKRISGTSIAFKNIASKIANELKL

[9] = target: Serine/threonine-protein kinase 26 (Homo sapiens, UniProt Q9P289); assay: Selectivity interaction (KinomeScan (DiscoverX)) EUB0000092b STK26; conditions: at 10 µM
Chain of Serine/threonine-protein kinase 26 (Q9P289 2-416 limits assumed): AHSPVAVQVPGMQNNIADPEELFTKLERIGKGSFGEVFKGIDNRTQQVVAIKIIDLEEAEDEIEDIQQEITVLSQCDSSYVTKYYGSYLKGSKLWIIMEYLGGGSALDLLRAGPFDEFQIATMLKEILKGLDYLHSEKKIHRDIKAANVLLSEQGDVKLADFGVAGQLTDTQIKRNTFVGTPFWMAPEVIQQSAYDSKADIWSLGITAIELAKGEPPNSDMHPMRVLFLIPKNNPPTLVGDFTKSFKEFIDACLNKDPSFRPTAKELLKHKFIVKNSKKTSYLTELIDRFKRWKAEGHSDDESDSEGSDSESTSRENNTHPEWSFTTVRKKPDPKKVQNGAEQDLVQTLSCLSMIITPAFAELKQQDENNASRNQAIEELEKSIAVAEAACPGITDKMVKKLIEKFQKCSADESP

[10] = target: Nucleosome-remodeling factor subunit BPTF (Homo sapiens, UniProt Q12830); assay: Selectivity interaction (Human bromodomain panel (DSF assay)) EUB0000233b BPTF
[11] = target: Serine/threonine-protein kinase PAK 2 (Homo sapiens) (UniProt Q13177); assay: Selectivity interaction (KinomeScan (DiscoverX)) EUB0000655a PAK2; conditions: at 10 µM
[12] = target: T3, Mitogen-activated protein kinase kinase kinase 3 (Homo sapiens) (UniProt Q99759); assay: Selectivity interaction (KinomeScan (DiscoverX)) EUB0001619a MAP3K3; conditions: at 1 µM
T3 sequence (whole entry): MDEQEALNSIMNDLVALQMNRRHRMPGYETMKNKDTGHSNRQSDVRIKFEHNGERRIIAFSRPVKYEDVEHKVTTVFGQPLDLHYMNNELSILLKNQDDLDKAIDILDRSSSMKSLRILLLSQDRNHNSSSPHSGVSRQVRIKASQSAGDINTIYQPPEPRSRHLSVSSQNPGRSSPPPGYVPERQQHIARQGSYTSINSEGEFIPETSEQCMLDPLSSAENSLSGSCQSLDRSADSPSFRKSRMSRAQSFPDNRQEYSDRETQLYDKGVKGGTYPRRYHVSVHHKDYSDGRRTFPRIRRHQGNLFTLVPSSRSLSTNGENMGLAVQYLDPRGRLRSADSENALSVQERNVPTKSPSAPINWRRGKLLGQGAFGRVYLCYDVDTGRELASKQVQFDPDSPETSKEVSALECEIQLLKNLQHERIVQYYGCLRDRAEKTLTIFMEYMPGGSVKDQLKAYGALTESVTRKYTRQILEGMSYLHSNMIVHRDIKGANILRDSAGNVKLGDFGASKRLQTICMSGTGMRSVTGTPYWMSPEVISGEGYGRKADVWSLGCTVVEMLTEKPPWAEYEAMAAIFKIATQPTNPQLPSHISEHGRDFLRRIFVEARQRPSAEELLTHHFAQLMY

[13] = target: MAP/microtubule affinity-regulating kinase 3 (Homo sapiens) (UniProt P27448); assay: Selectivity interaction (KinomeScan (DiscoverX)) EUB0001619a MARK3; conditions: at 1 µM
[14] = Selectivity interaction (KinomeScan (DiscoverX)) EUB0000618a PKNB; conditions: at 10 µM
[15] = target: Serine/threonine-protein kinase ATR (Homo sapiens) (UniProt Q13535); assay: Selectivity interaction (Kinase panel (KiNativ target engagement assay in Jurkat cells)) EUB0001635a ATR; format: cell-based; conditions: at 1 µM
[16] = target: Phosphatidylinositol 4-phosphate 3-kinase C2 domain-containing subunit beta (Homo sapiens) (UniProt O00750); assay: Selectivity interaction (KinomeScan (DiscoverX)) EUB0000666a PIK3C2B; conditions: at 10 µM
Chain of Phosphatidylinositol 4-phosphate 3-kinase C2 domain-containing subunit beta (Homo sapiens) (O00750 whole entry, the tested form may be a part): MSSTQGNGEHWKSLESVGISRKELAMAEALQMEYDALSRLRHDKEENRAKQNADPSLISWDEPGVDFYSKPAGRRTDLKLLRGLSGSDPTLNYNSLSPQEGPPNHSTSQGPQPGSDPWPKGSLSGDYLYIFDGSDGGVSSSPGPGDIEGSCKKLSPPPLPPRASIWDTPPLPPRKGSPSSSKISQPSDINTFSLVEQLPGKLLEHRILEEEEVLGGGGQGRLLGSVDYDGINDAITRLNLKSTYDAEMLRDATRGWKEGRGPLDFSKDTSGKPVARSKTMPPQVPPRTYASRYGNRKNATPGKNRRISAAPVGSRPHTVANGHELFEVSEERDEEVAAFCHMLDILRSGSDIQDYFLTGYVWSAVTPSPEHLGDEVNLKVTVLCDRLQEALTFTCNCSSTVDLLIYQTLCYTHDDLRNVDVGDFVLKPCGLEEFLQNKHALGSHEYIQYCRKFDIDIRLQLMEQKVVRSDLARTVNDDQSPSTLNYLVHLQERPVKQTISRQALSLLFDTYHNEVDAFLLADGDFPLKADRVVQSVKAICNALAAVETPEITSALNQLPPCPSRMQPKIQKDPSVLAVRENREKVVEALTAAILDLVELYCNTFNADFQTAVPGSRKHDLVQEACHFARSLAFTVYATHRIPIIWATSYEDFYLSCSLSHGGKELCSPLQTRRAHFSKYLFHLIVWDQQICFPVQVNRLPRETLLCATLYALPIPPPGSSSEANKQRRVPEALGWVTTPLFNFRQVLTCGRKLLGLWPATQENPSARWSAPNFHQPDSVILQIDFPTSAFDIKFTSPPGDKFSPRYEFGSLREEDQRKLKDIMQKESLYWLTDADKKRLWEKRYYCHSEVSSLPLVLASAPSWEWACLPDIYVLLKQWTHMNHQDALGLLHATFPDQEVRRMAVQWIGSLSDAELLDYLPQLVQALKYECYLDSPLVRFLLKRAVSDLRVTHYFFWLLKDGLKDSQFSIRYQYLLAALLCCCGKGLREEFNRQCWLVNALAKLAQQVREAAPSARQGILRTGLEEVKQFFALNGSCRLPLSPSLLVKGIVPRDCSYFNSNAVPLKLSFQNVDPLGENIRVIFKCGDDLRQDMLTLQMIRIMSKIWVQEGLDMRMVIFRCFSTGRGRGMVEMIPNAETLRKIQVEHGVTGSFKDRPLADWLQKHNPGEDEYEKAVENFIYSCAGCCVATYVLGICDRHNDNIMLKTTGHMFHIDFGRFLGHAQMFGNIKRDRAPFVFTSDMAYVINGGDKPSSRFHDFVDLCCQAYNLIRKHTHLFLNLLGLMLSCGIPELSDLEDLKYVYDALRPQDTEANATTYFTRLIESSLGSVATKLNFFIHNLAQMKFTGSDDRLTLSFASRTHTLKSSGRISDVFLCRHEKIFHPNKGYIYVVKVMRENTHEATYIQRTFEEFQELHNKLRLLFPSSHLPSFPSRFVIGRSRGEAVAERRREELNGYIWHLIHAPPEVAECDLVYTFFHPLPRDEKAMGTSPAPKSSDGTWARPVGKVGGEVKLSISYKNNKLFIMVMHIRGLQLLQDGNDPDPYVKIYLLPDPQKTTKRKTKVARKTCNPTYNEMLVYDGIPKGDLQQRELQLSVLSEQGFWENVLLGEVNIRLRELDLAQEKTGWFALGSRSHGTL

[17] = target: Mitogen-activated protein kinase kinase kinase 9 (Homo sapiens) (UniProt P80192); assay: Selectivity interaction (KinomeScan (DiscoverX)) EUB0000666a MAP3K9; conditions: at 10 µM
[18] = target: Tyrosine-protein kinase Fyn (Homo sapiens) (UniProt P06241); assay: Selectivity interaction (KinomeScan (DiscoverX)) EUB0000666a FYN; conditions: at 10 µM

Chain of Calcium/calmodulin-dependent protein kinase type 1 (Homo sapiens) (Q14012 whole entry, looked up): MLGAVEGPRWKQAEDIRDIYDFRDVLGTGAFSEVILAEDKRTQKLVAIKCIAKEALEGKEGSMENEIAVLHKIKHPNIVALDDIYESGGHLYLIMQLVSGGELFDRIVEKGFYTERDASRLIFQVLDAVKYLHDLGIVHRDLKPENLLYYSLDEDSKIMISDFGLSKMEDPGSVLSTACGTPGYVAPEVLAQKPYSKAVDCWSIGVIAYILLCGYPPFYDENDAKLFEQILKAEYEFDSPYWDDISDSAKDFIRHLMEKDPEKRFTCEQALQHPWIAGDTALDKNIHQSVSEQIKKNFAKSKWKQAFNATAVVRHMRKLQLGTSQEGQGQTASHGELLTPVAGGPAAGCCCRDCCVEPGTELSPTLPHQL

**Q.** With Cc1cc([C@@H](C)Nc2ccccc2C(=O)O)c2nc(N3CCOCC3)cc(=O)n2c1 [AZD-6482] as the compound, how does the % of control [1] read?
**A.** Its % of control is 100%.

**Q.** With CC(=O)Nc1cccc(-n2c(=O)n(C3CC3)c(=O)c3c(Nc4ccc(I)cc4F)n(C)c(=O)c(C)c32)c1 as the compound, how does the % of control [2] read?
**A.** The % of control was 93%.

**Q.** Which % of inhibition [3] does the source give for Cc1cnc(Nc2ccc(F)cc2Cl)nc1-c1c[nH]c(C(=O)N[C@H](CO)c2cccc(Cl)c2)c1 here?
**A.** The % of inhibition was 41%.

**Q.** Which % of control [4] does the source give for CN(C)C/C=C/C(=O)Nc1ccc(C(=O)N2CCCC(Nc3ncc(Cl)c(-c4c[nH]c5ccccc45)n3)C2)cc1 (stereo not drawn) here?
**A.** The % of control was 100%.

**Q.** With CC[C@@H]1[C@H](F)C(=O)N[C@@H]1COc1nccc2cc(C(N)=O)c(OC)cc12 [ZIMLOVISERTIB] as the compound, how does the % of inhibition ([5]; at 0.01 µM) read?
**A.** Its % of inhibition is 6.3%.

**Q.** What about the % of inhibition ([5]; at 0.04 µM) of the same compound?
**A.** Its % of inhibition is 12%.

**Q.** What about the % of inhibition ([5]; at 0.2 µM) of the same compound?
**A.** The % of inhibition was 7.4%.

**Q.** And the % of inhibition ([5]; at 1 µM)?
**A.** The % of inhibition was 13.3%.

**Q.** And the % of inhibition ([5]; at 5 µM)?
**A.** The % of inhibition was 2.6%.

**Q.** And the % of inhibition [6]?
**A.** Its % of inhibition is 16.7%.

**Q.** With COCC(=O)NC/C=C/c1ccc2ncnc(Nc3ccc(Oc4ccc(C)nc4)c(C)c3)c2c1 [CP-724714] as the compound, how does the % of control [7] read?
**A.** The % of control was 100%.

**Q.** With C=CC(=O)Nc1cccc(C(=O)Nc2ccc(Nc3cc(-c4[nH]c(SC)nc4C)ccn3)cc2)c1 as the compound, how does the % of control ([8]; at 1 µM) read?
**A.** Its % of control is 82%.

**Q.** And the % of control ([8]; at 5 µM)?
**A.** Its % of control is 92%.

**Q.** For CCC(=O)N1CCN(c2ccc(-n3c(=O)ccc4cnc5ccc(-c6cnc7ccccc7c6)cc5c43)cc2C(F)(F)F)CC1, which % of control [9] is on record?
**A.** The % of control was 89%.

**Q.** For CN(C)CCCOc1ccc(-c2cc(NCCCn3cccn3)nc(S(C)(=O)=O)n2)cc1, which dTM [10] is on record?
**A.** The dTM was 4 K.

**Q.** With CN(C)CCOc1ccc(-c2nc(-c3ccncc3)c(-c3ccc4c(c3)CC/C4=N\O)[nH]2)cc1 as the compound, how does the % of control [11] read?
**A.** Its % of control is 85%.

**Q.** What does the source list for N#Cc1cccc(-c2c[nH]c3ncnc(N4CCOCC4)c23)c1?
**A.** % of control [12]: 8.2%; % of control [13]: 100%

**Q.** For O[C@H]1CC[C@H](Nc2ncc3nc(Nc4c(F)cc(F)cc4F)n([C@H]4CCOC4)c3n2)CC1, which % of control [14] is on record?
**A.** Its % of control is 92%.

**Q.** Which % of engagement [15] does the source give for C=CC(=O)Nc1ccc(C(=O)Nc2[nH]nc3c2CN(C(=O)N[C@H](CN(C)C)c2ccccc2)C3(C)C)cc1 here?
**A.** Its % of engagement is -11.3%.

**Q.** Which results are given for O=C(NOC[C@H](O)CO)c1ccc(F)c(F)c1Nc1ccc(I)cc1F?
**A.** % of control [16]: 100%; % of control [17]: 95%; % of control [18]: 64%
